In US20210009542A1 (Calico Life Sciences LLC, priority 2018, published 2021):
Like-named read-outs stand apart in the source and are kept apart here.

What was measured:
[1] = target: T1, His tagged PTPN2 (TC45) protein (Homo sapiens, UniProt P17706); experiment: Mobility shift assay (MSA) for potency of PTPN2 inhibitors; format: biochemical; settings: read-out: PTPN2 MSA IC50
T1 construct: made in house
T1 sequence (P17706 with tags, fused parts or gaps isoform P17706-2): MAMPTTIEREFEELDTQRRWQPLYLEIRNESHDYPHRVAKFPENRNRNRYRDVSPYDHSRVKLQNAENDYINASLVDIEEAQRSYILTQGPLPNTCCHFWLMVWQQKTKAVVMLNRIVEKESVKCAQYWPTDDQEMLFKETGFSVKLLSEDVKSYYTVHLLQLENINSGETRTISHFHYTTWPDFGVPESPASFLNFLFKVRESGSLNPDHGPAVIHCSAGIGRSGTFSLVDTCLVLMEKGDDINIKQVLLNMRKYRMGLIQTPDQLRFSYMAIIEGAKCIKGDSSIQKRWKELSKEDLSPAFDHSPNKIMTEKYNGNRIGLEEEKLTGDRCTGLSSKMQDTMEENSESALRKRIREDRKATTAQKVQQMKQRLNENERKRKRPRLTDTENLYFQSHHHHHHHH
Procedure, shortened: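 His-tagged PTPN2 TC45 (0.5 nM) was preincubated with compound (12-point, 1:3) for 10 min at room temperature in 50 mM HEPES pH 7.5, 1 mM EGTA, 10 mM EDTA, 0.01% Tween 20, 2 mM DTT. OG488-labelled phospho-insulin-receptor peptide ([…]) was then added for 10 min. After quenching, dephosphorylation was measured by microfluidic mobility shift and IC50 derived from % inhibition.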

[2] = test system: B16F10 mouse melanoma cells; experiment: B16F10 IFNγ-induced cellular growth inhibition assay; format: cell-based; settings: Mus musculus, B16-F10, 33 μM compound
Procedure: B16F10 mouse melanoma cells (ATCC Cat ^#CRL-6475, Manassas, Va.) were seeded at a density of 500 cells per well in a 384-well clear bottom plate (Corning Cat^# 3765, Corning, N.Y.) in 25 μL total volume of DMEM+10% FBS (Sigma Cat ^#D6429 and Sigma Cat ^#F4135, St. Louis, Mo.). Cells were allowed to adhere overnight at 37° C.+5% CO2. On the following day, 12.5 μL of mouse IFNγ (RD systems Cat485-MI/CF, Minneapolis, Minn.) was added to half of the plate (columns 13-24) at a concentration of 2 ng/mL for a final assay concentration of 0.5 ng/mL of IFNγ. Media only (12.5 μL of DMEM+10% FBS) was added to the remainder of the plate (columns 1-12). Next, compounds resuspended in DMSO (Sigma Cat ^#D2650) at 100 mM were diluted in semi-log dilutions in DMSO ranging from 100 mM to 0.001 mM and DMSO only controls were included. The compound/DMSO dilutions were further diluted 1:250 in DMEM+10% FBS, and 12.5 μL of these dilutions were added in triplicates to cells of both treatment arms (with and without IFNγ). Final compound concentrations ranged from 100 μM to 0.001 μM with a final DMSO concentration of 0.1%. Compounds were only dosed in the inner 240 wells, avoiding the outer 2-well perimeter of the plate to minimize edge effects. Finally, the plate was loaded into an IncuCyte® S3 Live Cell Analysis System (Essen Bioscience-Sartorius, Ann Arbor, Mich.) maintained in a 37° C.+5% CO2 incubator, allowed to equilibrate for 2 hours, and imaged every 6 hours for 5 days. Confluence over time for compound dilutions in the presence and absence of IFNγ was measured. Growth inhibition values were obtained when the “DMSO/no IFNγ” control reached confluence >95%. At these time points, the percent growth inhibition of each compound at the indicated concentration was calculated relative to the “DMSO/with IFNγ” control.

[3] = +0.5 ng/mL IFNγ, relative to DMSO control, read-out: % B16F10 growth inhibition (+0.5 ng/mL IFNγ) @ 33 μM
[4] = no IFNγ, read-out: % B16F10 growth inhibition (no IFNγ) @ 33 μM

Molecule `COCCOc1ccc2cc(O)c(N3CC(=O)NS3(=O)=O)c(F)c2c1` [Compound 119, 5-[1-fluoro-3-hydroxy-7-(2-methoxyethoxy)naphthalen-2-yl]-1λ^6,2,5-thiadiazolidine-1,1,3-trione] has an IC50 [1] of 1 to 10 nM, an inhibition at 33 µM [2, 3] of 60 to 90% and an inhibition at 33 µM [2, 4] of under 25%.

`CC(C)(C#N)CCOc1ccc2cc(O)c(N3CC(=O)NS3(=O)=O)c(F)c2c1` [Compound 120, 4-{[8-fluoro-6-hydroxy-7-(1,1,4-trioxo-1λ^6,2,5-thiadiazolidin-2-yl)naphthalen-2-yl]oxy}-2,2-dimethylbutanenitrile] was tested, and the IC50 [1] was under 1 nM, the inhibition at 33 µM [2, 3] was 60 to 90% and the inhibition at 33 µM [2, 4] was under 25%.

For `[2H]C1([2H])C(=O)NS(=O)(=O)N1c1c(O)cc2ccc(OC)cc2c1F` [Compound 123, 5-(1-fluoro-3-hydroxy-7-methoxynaphthalen-2-yl)(4,4-^2H2)-1λ^6,2,5-thiadiazolidine-1,1,3-trione], the IC50 [1] was 1 to 10 nM, the inhibition at 33 µM [2, 3] was 60 to 90% and the inhibition at 33 µM [2, 4] was under 25%.

In the case of `O=C1CN(c2c(O)cc3ccc(NCCNS(=O)(=O)C4CC4)cc3c2F)S(=O)(=O)N1` [Compound 125, N-(2-{[8-fluoro-6-hydroxy-7-(1,1,4-trioxo-1λ^6,2,5-thiadiazolidin-2-yl)naphthalen-2-yl]amino}ethyl)cyclopropanesulfonamide], the IC50 [1] is reported as 1 to 10 nM, the inhibition at 33 µM [2, 3] is reported as 60 to 90% and the inhibition at 33 µM [2, 4] is reported as under 25%.

Molecule `O=C1CN(c2c(O)cc3ccc(OCCNS(=O)(=O)C4CC4)cc3c2F)S(=O)(=O)N1` [Compound 127, N-(2-{[8-fluoro-6-hydroxy-7-(1,1,4-trioxo-1λ^6,2,5-thiadiazolidin-2-yl)naphthalen-2-yl]oxy}ethyl)cyclopropanesulfonamide] has an IC50 [1] of under 1 nM, an inhibition at 33 µM [2, 3] of 60 to 90% and an inhibition at 33 µM [2, 4] of under 25%.

For `CS(=O)(=O)N1CC(Nc2ccc3cc(O)c(N4CC(=O)NS4(=O)=O)c(F)c3c2)C1` [Compound 128, 5-(1-fluoro-3-hydroxy-7-{[1-(methanesulfonyl)azetidin-3-yl]amino}naphthalen-2-yl)-1λ^6,2,5-thiadiazolidine-1,1,3-trione], the IC50 [1] was 1 to 10 nM, the inhibition at 33 µM [2, 3] was over 90% and the inhibition at 33 µM [2, 4] was under 25%.

`N#CCCCOc1ccc2cc(O)c(N3CC(=O)NS3(=O)=O)c(F)c2c1` [Compound 129, 4-{[8-fluoro-6-hydroxy-7-(1,1,4-trioxo-1λ^6,2,5-thiadiazolidin-2-yl)naphthalen-2-yl]oxy}butanenitrile] showed an IC50 [1] of under 1 nM, an inhibition at 33 µM [2, 3] of over 90% and an inhibition at 33 µM [2, 4] of under 25%.

For `N#CCC1(COc2ccc3cc(O)c(N4CC(=O)NS4(=O)=O)c(F)c3c2)CC1` [Compound 130, [1-({[8-fluoro-6-hydroxy-7-(1,1,4-trioxo-1λ^6,2,5-thiadiazolidin-2-yl)naphthalen-2-yl]oxy}methyl)cyclopropyl]acetonitrile], the IC50 [1] was under 1 nM, the inhibition at 33 µM [2, 3] was 60 to 90% and the inhibition at 33 µM [2, 4] was under 25%.

In the case of `O=C1CN(c2c(O)cc3ccc(-c4cnn(CC5CC5)c4)cc3c2F)S(=O)(=O)N1` [Compound 132, 5-{7-[1-(cyclopropylmethyl)-1H-pyrazol-4-yl]-1-fluoro-3-hydroxynaphthalen-2-yl}-1λ^6,2,5-thiadiazolidine-1,1,3-trione], the IC50 [1] is reported as under 1 nM, the inhibition at 33 µM [2, 3] is reported as 60 to 90% and the inhibition at 33 µM [2, 4] is reported as under 25%.

With `CP(C)(=O)c1ccc(-c2ccc3cc(O)c(N4CC(=O)NS4(=O)=O)c(F)c3c2)s1` [Compound 141, 5-{7-[5-(dimethylphosphoryl)thiophen-2-yl]-1-fluoro-3-hydroxynaphthalen-2-yl}-1λ^6,2,5-thiadiazolidine-1,1,3-trione] the IC50 [1] was under 1 nM, the inhibition at 33 µM [2, 3] was 60 to 90% and the inhibition at 33 µM [2, 4] was under 25%.

`C[C@H](O)CCOc1ccc2cc(O)c(N3CC(=O)NS3(=O)=O)c(F)c2c1` [Compound 147, 5-{1-fluoro-3-hydroxy-7-[(3S)-3-hydroxybutoxy]naphthalen-2-yl}-1λ^6,2,5-thiadiazolidine-1,1,3-trione] was tested, and the IC50 [1] was under 1 nM, the inhibition at 33 µM [2, 3] was over 90% and the inhibition at 33 µM [2, 4] was under 25%.

Work on `CCC(=O)CCOc1ccc2cc(O)c(N3CC(=O)NS3(=O)=O)c(F)c2c1` [Compound 155, 5-{1-fluoro-3-hydroxy-7-[(3-oxopentyl)oxy]naphthalen-2-yl}-1λ^6,2,5-thiadiazolidine-1,1,3-trione] yielded an IC50 [1] of under 1 nM, an inhibition at 33 µM [2, 3] of 60 to 90% and an inhibition at 33 µM [2, 4] of 60 to 90%.

With `O=C1CN(c2c(O)cc3ccc(OCCCC(F)(F)F)cc3c2F)S(=O)(=O)N1` [Compound 158, 5-[1-fluoro-3-hydroxy-7-(4,4,4-trifluorobutoxy)naphthalen-2-yl]-1λ^6,2,5-thiadiazolidine-1,1,3-trione] the IC50 [1] was 1 to 10 nM, the inhibition at 33 µM [2, 3] was 60 to 90% and the inhibition at 33 µM [2, 4] was under 25%.

In the case of `N#CC1(CCOc2ccc3cc(O)c(N4CC(=O)NS4(=O)=O)c(F)c3c2)CC1` [Compound 159, 1-(2-{[8-fluoro-6-hydroxy-7-(1,1,4-trioxo-1λ^6,2,5-thiadiazolidin-2-yl)naphthalen-2-yl]oxy}ethyl)cyclopropane-1-carbonitrile], the IC50 [1] is reported as under 1 nM, the inhibition at 33 µM [2, 3] is reported as over 90% and the inhibition at 33 µM [2, 4] is reported as under 25%.

`CNCC(C)(C)CCOc1ccc2cc(O)c(N3CC(=O)NS3(=O)=O)c(F)c2c1` [Compound 163, 5-{7-[3,3-dimethyl-4-(methylamino)butoxy]-1-fluoro-3-hydroxynaphthalen-2-yl}-1λ^6,2,5-thiadiazolidine-1,1,3-trione] showed an IC50 [1] of under 1 nM, an inhibition at 33 µM [2, 3] of over 90% and an inhibition at 33 µM [2, 4] of under 25%.

`O=C1CN(c2c(O)cc3ccc(NCCc4ccccc4)cc3c2F)S(=O)(=O)N1` [Compound 164, 5-{1-fluoro-3-hydroxy-7-[(2-phenylethyl)amino]naphthalen-2-yl}-1λ^6,2,5-thiadiazolidine-1,1,3-trione] showed an IC50 [1] of under 1 nM, an inhibition at 33 µM [2, 3] of over 90% and an inhibition at 33 µM [2, 4] of under 25%.

Molecule `CC(C)(N)CCOc1ccc2cc(O)c(N3CC(=O)NS3(=O)=O)c(F)c2c1` [Compound 165, 5-[7-(3-amino-3-methylbutoxy)-1-fluoro-3-hydroxynaphthalen-2-yl]-1λ^6,2,5-thiadiazolidine-1,1,3-trione] has an IC50 [1] of 1 to 10 nM, an inhibition at 33 µM [2, 3] of over 90% and an inhibition at 33 µM [2, 4] of under 25%.

Work on `O=C1CN(c2c(O)cc3ccc(NCCCC(F)(F)F)cc3c2F)S(=O)(=O)N1` [Compound 166, 5-{1-fluoro-3-hydroxy-7-[(4,4,4-trifluorobutyl)amino]naphthalen-2-yl}-1λ^6,2,5-thiadiazolidine-1,1,3-trione] yielded an IC50 [1] of 1 to 10 nM, an inhibition at 33 µM [2, 3] of over 90% and an inhibition at 33 µM [2, 4] of under 25%.

Work on `O=C1CN(c2c(O)cc3ccc(C(F)F)cc3c2F)S(=O)(=O)N1` [Compound 167, 5-[7-(difluoromethyl)-1-fluoro-3-hydroxynaphthalen-2-yl]-1λ^6,2,5-thiadiazolidine-1,1,3-trione] yielded an IC50 [1] of 10 to 100 nM, an inhibition at 33 µM [2, 3] of 60 to 90% and an inhibition at 33 µM [2, 4] of under 25%.

Molecule `CP(C)(=O)N1CC=C(c2ccc3cc(O)c(N4CC(=O)NS4(=O)=O)c(F)c3c2)C1` [Compound 168, 5-{7-[1-(dimethylphosphoryl)-2,5-dihydro-1H-pyrrol-3-yl]-1-fluoro-3-hydroxynaphthalen-2-yl}-1λ^6,2,5-thiadiazolidine-1,1,3-trione] has an IC50 [1] of under 1 nM, an inhibition at 33 µM [2, 3] of over 90% and an inhibition at 33 µM [2, 4] of under 25%.

Work on `O=C1CN(c2c(O)cc3ccc(NCCC(F)(F)F)cc3c2F)S(=O)(=O)N1` [Compound 169, 5-{1-fluoro-3-hydroxy-7-[(3,3,3-trifluoropropyl)amino]naphthalen-2-yl}-1λ^6,2,5-thiadiazolidine-1,1,3-trione] yielded an IC50 [1] of 1 to 10 nM, an inhibition at 33 µM [2, 3] of over 90% and an inhibition at 33 µM [2, 4] of under 25%.
